Measured values reported in the supplement of paper PMC11208160.

Assay: recombinant UMI read abundance after kanamycin selection (control-corrected) (log10(CPM+1)); higher = more efficient recombination; extreme values may be limits of the assay; sequences stand for … in AGTGCAGAGAAAATCGGCCAGTTTTCTCTGCCTGCAGTCCGCATGCCGTGGGACCCCTTGGGTTCTAACCTGTTGCCTAGATTTATGCAGCGGACTGCCTTTCTCCCAAAGTGATAAACCGG…AGGTTGGTTTCACT; site = the 11-nt donor
In short: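 Sequenced counts of recombinant UMIs were turned into CPM, averaged across replicates and scaled with control-derived factors. The reported figure is log10(CPM+1). Those UMIs, each 12 nt long, tagged donor and donor-binding-loop pairs on a plasmid with a promoterless kanamycin gene, screened as a pool in Escherichia coli with IPTG (0.07 mM) plus kanamycin or without selection.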
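Note: IS621 bridge recombinase in Escherichia coli cells against a fixed T5 target plasmid.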

Sequence: CTGGTACCATGGACCGGTTTTCCCGGTAATCCGTATTTGCT (site CTGCTACCTAG)
- recombinant UMI read abundance (log10): 0

Sequence: CTGGTACCATGGACCGGTTTTCCCGGTAATCCGTATTTGCT (site CTGGTACCTAG)
- recombinant UMI read abundance (log10): 0

Sequence: CTGGTACCATGGACCGGTTTTCCCGGTAATCCGTATTTGCT (site CTGTTACCTAG)
- recombinant UMI read abundance (log10): 0

Sequence: CTGTAAACATGGACCGGTTTTCCCGGTAATCCGTATTTGCA (site CTGAAAACTTG)
- recombinant UMI read abundance (log10): 0

Sequence: CTGTAAACATGGACCGGTTTTCCCGGTAATCCGTATTTGCA (site CTGCAAACTTG)
- recombinant UMI read abundance (log10): 0.604

Sequence: CTGTAAACATGGACCGGTTTTCCCGGTAATCCGTATTTGCA (site CTGGAAACTTG)
- recombinant UMI read abundance (log10): 0

Sequence: CTGTAAACATGGACCGGTTTTCCCGGTAATCCGTATTTGCA (site CTGTAAACTTG)
- recombinant UMI read abundance (log10): 1.29

Sequence: CTGTACCCATGGACCGGTTTTCCCGGTAATCCGTATTTGTA (site CTGTACCCTTA)
- recombinant UMI read abundance (log10): 0.461

Sequence: CTGTCTCCATGGACCGGTTTTCCCGGTAATCCGTATTTGTC (site CTGTCTCCTGA)
- recombinant UMI read abundance (log10): 0.331

Sequence: CTTAGATCATGGACCGGTTTTCCCGGTAATCCGTATTTGGG (site CTTAGATCTCC)
- recombinant UMI read abundance (log10): 0.475

Sequence: CTTATAACATGGACCGGTTTTCCCGGTAATCCGTATTTGGA (site CTTATAACTTC)
- recombinant UMI read abundance (log10): 1

Sequence: CTTCAATCATGGACCGGTTTTCCCGGTAATCCGTATTTGGT (site CTTCAATCTAC)
- recombinant UMI read abundance (log10): 1.96

Sequence: CTTCCGACATGGACCGGTTTTCCCGGTAATCCGTATTTGAC (site CTTCCGACTGT)
- recombinant UMI read abundance (log10): 2.04

Sequence: CTTCCTACATGGACCGGTTTTCCCGGTAATCCGTATTTGAG (site CTACCTACTCT)
- recombinant UMI read abundance (log10): 0.0179

Sequence: CTTCCTACATGGACCGGTTTTCCCGGTAATCCGTATTTGAG (site CTCCCTACTCT)
- recombinant UMI read abundance (log10): 0.0168

Sequence: CTTCCTACATGGACCGGTTTTCCCGGTAATCCGTATTTGAG (site CTGCCTACTCT)
- recombinant UMI read abundance (log10): 0.0339

Sequence: CTTCCTACATGGACCGGTTTTCCCGGTAATCCGTATTTGAG (site CTTCCTACTCT)
- recombinant UMI read abundance (log10): 0.0166

Sequence: CTTCGAGCATGGACCGGTTTTCCCGGTAATCCGTATTTGCA (site ATTCGAGCTTG)
- recombinant UMI read abundance (log10): 0.00677

Sequence: CTTCGAGCATGGACCGGTTTTCCCGGTAATCCGTATTTGCA (site CTTCGAGCTTG)
- recombinant UMI read abundance (log10): 1.03

Sequence: CTTCGAGCATGGACCGGTTTTCCCGGTAATCCGTATTTGCA (site GTTCGAGCTTG)
- recombinant UMI read abundance (log10): 0

Sequence: CTTCGAGCATGGACCGGTTTTCCCGGTAATCCGTATTTGCA (site TTTCGAGCTTG)
- recombinant UMI read abundance (log10): 0

Sequence: CTTCTACCATGGACCGGTTTTCCCGGTAATCCGTATTTGCT (site CTACTACCTAG)
- recombinant UMI read abundance (log10): 0

Sequence: CTTCTACCATGGACCGGTTTTCCCGGTAATCCGTATTTGCT (site CTCCTACCTAG)
- recombinant UMI read abundance (log10): 0.00753

Sequence: CTTCTACCATGGACCGGTTTTCCCGGTAATCCGTATTTGCT (site CTGCTACCTAG)
- recombinant UMI read abundance (log10): 0

Sequence: CTTCTACCATGGACCGGTTTTCCCGGTAATCCGTATTTGCT (site CTTCTACCTAG)
- recombinant UMI read abundance (log10): 0.00449

Sequence: CTTCTATCATGGACCGGTTTTCCCGGTAATCCGTATTTGGT (site CTTCTATCTAC)
- recombinant UMI read abundance (log10): 1.58

Sequence: CTTCTCCCATGGACCGGTTTTCCCGGTAATCCGTATTTGTA (site CTTCTCACTTA)
- recombinant UMI read abundance (log10): 0.0088

Sequence: CTTCTCCCATGGACCGGTTTTCCCGGTAATCCGTATTTGTA (site CTTCTCCCTTA)
- recombinant UMI read abundance (log10): 0.487

Sequence: CTTCTCCCATGGACCGGTTTTCCCGGTAATCCGTATTTGTA (site CTTCTCGCTTA)
- recombinant UMI read abundance (log10): 0.0148

Sequence: CTTCTCCCATGGACCGGTTTTCCCGGTAATCCGTATTTGTA (site CTTCTCTCTTA)
- recombinant UMI read abundance (log10): 0.837

Sequence: CTTCTCGCATGGACCGGTTTTCCCGGTAATCCGTATTTGCG (site CTTCTCGCTCG)
- recombinant UMI read abundance (log10): 0.0091

Sequence: CTTGCCCCATGGACCGGTTTTCCCGGTAATCCGTATTTGTA (site CTTGCCCCTTA)
- recombinant UMI read abundance (log10): 0.366

Sequence: CTTGCTTCATGGACCGGTTTTCCCGGTAATCCGTATTTGAT (site CTTGCTTCTAT)
- recombinant UMI read abundance (log10): 0.0131

Sequence: CTTGGAACATGGACCGGTTTTCCCGGTAATCCGTATTTGTT (site CATGGAACTAA)
- recombinant UMI read abundance (log10): 0.791

Sequence: CTTGGAACATGGACCGGTTTTCCCGGTAATCCGTATTTGTT (site CCTGGAACTAA)
- recombinant UMI read abundance (log10): 0.00748

Sequence: CTTGGAACATGGACCGGTTTTCCCGGTAATCCGTATTTGTT (site CGTGGAACTAA)
- recombinant UMI read abundance (log10): 0.00508

Sequence: CTTGGAACATGGACCGGTTTTCCCGGTAATCCGTATTTGTT (site CTTGGAACTAA)
- recombinant UMI read abundance (log10): 1.36

Sequence: CTTGTAACATGGACCGGTTTTCCCGGTAATCCGTATTTGCA (site CTTGTAACTTG)
- recombinant UMI read abundance (log10): 0.147

Sequence: CTTGTATCATGGACCGGTTTTCCCGGTAATCCGTATTTGAC (site CTAGTATCTGT)
- recombinant UMI read abundance (log10): 0

Sequence: CTTGTATCATGGACCGGTTTTCCCGGTAATCCGTATTTGAC (site CTCGTATCTGT)
- recombinant UMI read abundance (log10): 0

Sequence: CTTGTATCATGGACCGGTTTTCCCGGTAATCCGTATTTGAC (site CTGGTATCTGT)
- recombinant UMI read abundance (log10): 0

Sequence: CTTGTATCATGGACCGGTTTTCCCGGTAATCCGTATTTGAC (site CTTGTATCTGT)
- recombinant UMI read abundance (log10): 0

Sequence: CTTGTATCATGGACCGGTTTTCCCGGTAATCCGTATTTGGC (site CTAGTATCTGT)
- recombinant UMI read abundance (log10): 0.315

Sequence: CTTGTATCATGGACCGGTTTTCCCGGTAATCCGTATTTGGC (site CTTGTATCTGC)
- recombinant UMI read abundance (log10): 0.486

Sequence: CTTTAAACATGGACCGGTTTTCCCGGTAATCCGTATTTGTC (site CTTTAAACTGA)
- recombinant UMI read abundance (log10): 0

Sequence: CTTTTCTCATGGACCGGTTTTCCCGGTAATCCGTATTTGTA (site CTTATCTCTTA)
- recombinant UMI read abundance (log10): 0

Sequence: CTTTTCTCATGGACCGGTTTTCCCGGTAATCCGTATTTGTA (site CTTCTCTCTTA)
- recombinant UMI read abundance (log10): 0.274

Sequence: CTTTTCTCATGGACCGGTTTTCCCGGTAATCCGTATTTGTA (site CTTGTCTCTTA)
- recombinant UMI read abundance (log10): 0.00384

Sequence: CTTTTCTCATGGACCGGTTTTCCCGGTAATCCGTATTTGTA (site CTTTTCTCTTA)
- recombinant UMI read abundance (log10): 0.0916

Sequence: GAAACTACATGGACCGGTTTTCCCGGTAATCCGTATTTGCC (site GAAACTACTGG)
- recombinant UMI read abundance (log10): 1.88

Sequence: GAACACCCATGGACCGGTTTTCCCGGTAATCCGTATTTGGA (site GAACACCCTTC)
- recombinant UMI read abundance (log10): 0.00915

Sequence: GAACATACATGGACCGGTTTTCCCGGTAATCCGTATTTGAA (site GAACATACTTT)
- recombinant UMI read abundance (log10): 1.69

Sequence: GAACATTCATGGACCGGTTTTCCCGGTAATCCGTATTTGTT (site GAAAATTCTAA)
- recombinant UMI read abundance (log10): 0

Sequence: GAACATTCATGGACCGGTTTTCCCGGTAATCCGTATTTGTT (site GAACATTCTAA)
- recombinant UMI read abundance (log10): 2.03

Sequence: GAACATTCATGGACCGGTTTTCCCGGTAATCCGTATTTGTT (site GAAGATTCTAA)
- recombinant UMI read abundance (log10): 0

Sequence: GAACATTCATGGACCGGTTTTCCCGGTAATCCGTATTTGTT (site GAATATTCTAA)
- recombinant UMI read abundance (log10): 0.0114

Sequence: GAACCGACATGGACCGGTTTTCCCGGTAATCCGTATTTGGT (site GAACCGACTAC)
- recombinant UMI read abundance (log10): 0.724

Sequence: GAACGGCCATGGACCGGTTTTCCCGGTAATCCGTATTTGCA (site GAAAGGCCTTG)
- recombinant UMI read abundance (log10): 0

Sequence: GAACGGCCATGGACCGGTTTTCCCGGTAATCCGTATTTGCA (site GAACGGCCTTG)
- recombinant UMI read abundance (log10): 0.812

Sequence: GAACGGCCATGGACCGGTTTTCCCGGTAATCCGTATTTGCA (site GAAGGGCCTTG)
- recombinant UMI read abundance (log10): 0

Sequence: GAACGGCCATGGACCGGTTTTCCCGGTAATCCGTATTTGCA (site GAATGGCCTTG)
- recombinant UMI read abundance (log10): 0

Sequence: GAACTCACATGGACCGGTTTTCCCGGTAATCCGTATTTGCT (site GAACTCACTAG)
- recombinant UMI read abundance (log10): 2.53

Sequence: GAACTGGCATGGACCGGTTTTCCCGGTAATCCGTATTTGCG (site GAACTGGCTCG)
- recombinant UMI read abundance (log10): 0.715

Sequence: GAACTTACATGGACCGGTTTTCCCGGTAATCCGTATTTGCG (site GAACTTACTCG)
- recombinant UMI read abundance (log10): 1.85

Sequence: GAAGACTCATGGACCGGTTTTCCCGGTAATCCGTATTTGTT (site GAAGAATCTAA)
- recombinant UMI read abundance (log10): 0.423

Sequence: GAAGACTCATGGACCGGTTTTCCCGGTAATCCGTATTTGTT (site GAAGACTCTAA)
- recombinant UMI read abundance (log10): 2.84

Sequence: GAAGACTCATGGACCGGTTTTCCCGGTAATCCGTATTTGTT (site GAAGAGTCTAA)
- recombinant UMI read abundance (log10): 0.00964

Sequence: GAAGACTCATGGACCGGTTTTCCCGGTAATCCGTATTTGTT (site GAAGATTCTAA)
- recombinant UMI read abundance (log10): 0.506
